Measurements as given in patent publication US9453242B2, “Method and culture medium for preparing mammalian ovum or embryo in which zona pellucida has been thinned or eliminated, and method for fertilization using mammalian ovum prepared by same method” (NATIONAL UNIVERISTY CORPORATION KUMAMOTO UNIVERSITY, priority 2010, dated 2016).
Read-outs that look alike come from different tables or passages of the source.

Key:
[1] = tested on: mouse frozen unfertilized ovums
Method: According to an ordinary method, mouse frozen unfertilized ovums were prepared using 8-week old female mice.

[2] = Method: (§1) Mouse fresh unfertilized ovums in which cumulus cells had been removed prepared according to the above-described “1. Preparation of oocyte” were prepared, then, 10 μl of an HTF culture medium containing glutathione at various concentrations (5, 10, 25, 50, 100, 200 and 300 mM) was dropped onto the bottom of a petri dish, and 20 ovums were inserted into this, and the time until elimination of zona pellucida was measured.
[3] = tested on: zona pellucida of mouse fresh unfertilized ovums
Method: Mouse fresh unfertilized ovums in which cumulus cells had been removed prepared according to the above-described “1. Preparation of ovum” were prepared. The ovums were treated with an HTF culture medium containing glutathione at a concentration of 100 mM (30.7 mg/ml) at 20° C. for 90 seconds. The operation conducted is explained referring to FIG. 7. Onto the bottom of a petri dish, 10 μl of a glutathione-containing HTF culture medium was dropped, and 10 embryos were inserted into this. […] After confirmation of disappearance of zona pellucida, the embryos were immediately diluted with 1000 μl of an HTF culture medium containing no glutathione, for avoiding damage on the embryos. Thereafter, the zona pellucida-eliminated embryos were transferred into a 100 μl drop of HTF, and further, transferred into a 100 μl drop of HTF twice, thus continuing incubation.
Elimination of the zona pellucida of an unfertilized ovum was conducted in the same manner as in Example 4 excepting use of an HTF culture medium having a glutathione concentration of 50 mM (15.4 mg/ml).
as §1

[4] = tested on: zona pellucida-eliminated ovum; settings: frozen C57BL/6 sperms
[5] = tested on: frozen sperms of C57BL/6J mice; test: In vitro fertilization after sperm pre-incubation with MBCD and/or glutathione; assay type: cell-based, mouse; settings: for number of 2-cell stage embryo(%) / number of 2-cell stage embryo: sperm pre-incubation MBCD −
Method: A sperm suspension is pre-incubated in 90 μl of a TYH culture medium at 37° C. for 30 minutes, and under a stereomicroscope, sperms showing motility are collected, avoiding nonmotile sperms, and used for fertilization. The pre-incubated sperm suspension (10 μl) is added to 90 μl of an HTF culture medium (±glutathione) into which cumulus-oocyte complexes (COCs) have been previously introduced (insemination), and these are co-incubated in an incubator for 5 to 6 hours (37° C., 5% CO2), thereby performing fertilization. Thereafter, the ovum is washed with drops of new HTF, and the ovum is observed. Those judged to parthenogenetic (only one pronucleus is recognized in ooplasm) are excluded, and on the following day (24 hours after insemination), only 2-cell stage embryos are selected, and fertilization rate is determined according to the following formula. In vitro fertilization rate (%)=(number of 2-cell stage embryo)/(number of 2-cell stage embryo+number of unfertilized ovum)×100
The TYH culture medium used for pre-incubation of sperms was prepared according to the above-described composition excepting that polyvinyl alcohol (1.0 mg/ml, available from SIGMA) was used instead of bovine serum albumin, and methyl-β-cyclodextrin (0.75 mM, available from SIGMA) was added. Further, the concentration of glutathione in the TYH culture medium was 1 mM, preparation was carried out in the same manner as in Example 1, and glutathione was added to the TYH culture medium directly before use. The influence on fertilization rate was compared among those containing methyl-β-cyclodextrin, those containing glutathione and those containing both compounds.
Fertilization was conducted with 90 μl of an HTF culture medium (in the case of addition of glutathione, the concentration was 1 mM) containing cumulus-oocyte complexes (COCs), in the same manner as in Example 1 (IVF/glutathione in table). As the sperm, frozen sperms of C57BL/6J mice were used, and processed according to FIG. 1. Thawed sperms were pre-incubated in a TYH culture medium (±glutathione, ±methyl-β-cyclodextrin) at 37° C. for 30 minutes, and sperms showing motility were collected and used for fertilization. The experiment was conducted five times.

[6] = tested on: mouse embryo in the early stages of development (8-cell stage embryo); settings: glutathione 100 mM, 20° C., 90 seconds
Text: The zona pellucida of a mouse embryo in the early stages of development (8-cell stage embryo) used for production of a genetically modified mouse was eliminated.

[7] = tested on: zona pellucida of a mouse unfertilized ovum; test: Swelling of zona pellucida (area in zona pellucida) of unfertilized ovum; assay type: cell-based; settings: 37° C., 6 hours
Method: Further, the influence of glutathione on swelling of zona pellucida was confirmed. […] Preparation of ovum” were treated with HTF culture media containing glutathione at various concentration at 37° C. for 6 hours, then, the area in zona pellucida was photographed under a microscope and measured by an image analysis software. The conditions of zona pellucida at glutathione concentrations of 0 mM, 1 mM, 2 mM and 10 mM were observed by an invert microscope.
The influence of other reducing agents (DTT, ascorbic acid (VC) and epicatechin (EC)) exerted on thinning and swelling of zona pellucida was confirmed in the same manner as in Example 2. The extent of swelling of the zona pellucida of an unfertilized ovum by the concentration of each reducing agent was photographed under a microscope, and determined according to the following formula. % Relative area in ZP=(area of zona pellucida in each experiment/area of zona pellucida at 0 mM)×100

[8] = freeze-thawed ovums, zona pellucida eliminated with 100 mM glutathione
[9] = glutathione 100 mM (30.7 mg/ml), 20° C.

Structure (SMILES): N[C@@H](CCC(=O)N[C@@H](CS)C(=O)NCC(=O)O)C(=O)O [glutathione, reduced glutathione]
- fertilization rate [1, 8]: 25%
- fertilization rate (fertilized/total) [1, 8]: 125/492
- condition of zona pellucida of freeze-thawed unfertilized ovum ([1]; glutathione 100 mM, 20° C., 90 seconds): the zona pellucida of a freeze-thawed unfertilized ovum was eliminated
- pH ([2]; HTF culture medium with glutathione 5 mM): 7.3
- pH ([2]; HTF culture medium with glutathione 10 mM): 7.4
- pH ([2]; HTF culture medium with glutathione 25 mM): 6.1
- pH ([2]; HTF culture medium with glutathione 50 mM): 4.0
- pH ([2]; HTF culture medium with glutathione 100 mM): 3.5
- pH ([2]; HTF culture medium with glutathione 200 mM): 3.1
- pH ([2]; HTF culture medium with glutathione 300 mM): 3.1
- glutathione concentration at which zona pellucida was eliminated [3]: ≥ 50 mM
- condition of zona pellucida ([3]; glutathione 5 mM in HTF): thinning
- condition of zona pellucida ([3]; glutathione 10 mM in HTF): thinning
- condition of zona pellucida ([3]; glutathione 25 mM in HTF): thinning
- condition of zona pellucida ([3]; glutathione 50 mM in HTF): elimination
- time (second) necessary for lysis of zona pellucida ([3]; glutathione 50 mM in HTF): <1,500 second
- zona pellucida-eliminated embryos produced ([3]; glutathione 50 mM, using 20 embryos, 2 experiments): 20
- time after which zona pellucida began to become thin (swell) [3, 9]: 30 s
- time after which zona pellucida disappeared completely [3, 9]: 90 s
- condition of zona pellucida ([3]; glutathione 100 mM in HTF): elimination
- time (second) necessary for lysis of zona pellucida ([3]; glutathione 100 mM in HTF): <60 s
- zona pellucida-eliminated embryos produced ([3]; glutathione 100 mM, using 70 embryos, 10 experiments): 70
- condition of zona pellucida ([3]; glutathione 200 mM in HTF): elimination
- time (second) necessary for lysis of zona pellucida ([3]; glutathione 200 mM in HTF): <50 s
- condition of zona pellucida ([3]; glutathione 300 mM in HTF): elimination
- time (second) necessary for lysis of zona pellucida ([3]; glutathione 300 mM in HTF): <10 s
- fertilization and development of zona pellucida-eliminated ovum ([4]; glutathione 100 mM pre-treatment): fertilization occurred and the development of an ovum (ovum division) was confirmed
- embryos developed to the blastocyst stage ([4]; of 70 zona pellucida-eliminated embryos (glutathione 100 mM)): 66
- effect of treating unfertilized ovums on fertilization rate ([5]; glutathione 1 mM in IVF medium): remarkable improvement in fertilization rate
- number of 2-cell stage embryo(%) ([5]; glutathione + (1 mM), IVF glutathione −): 15%
- number of 2-cell stage embryo ([5]; glutathione + (1 mM), IVF glutathione −, 344 oocytes): 53
- number of 2-cell stage embryo(%) ([5]; glutathione +, IVF glutathione +): 38%
- number of 2-cell stage embryo ([5]; glutathione +, IVF glutathione +, 371 oocytes): 140
- number of 2-cell stage embryo(%) ([5]; glutathione −, IVF glutathione + (1 mM)): 36%
- number of 2-cell stage embryo ([5]; glutathione −, IVF glutathione + (1 mM), 381 oocytes): 136
- effect of sperm pre-incubation on fertilization rate ([5]; sperms pre-incubated with 1 mM glutathione or 0.75 mM MBCD, 37° C., 30 minutes): improvement in fertilization rate was not observed
- elimination of zona pellucida of 8-cell stage embryo [6]: elimination of zona pellucida from a 8-cell stage embryo
- glutathione concentration at which swelling of zona pellucida was recognized remarkably [7]: ≥ 2 mM
- swelling of zona pellucida ([7]; HTF with glutathione at various concentration): swelling of zona pellucida was confirmed depending on the glutathione concentration
